41 compounds from patent US7932283B2, “Fungicide N-cyclopropyl-sulfonylamide derivatives” (Bayer Cropscience AG, priority 2006, dated 2011) can be followed below.

For orientation: chromatographic logP means a lipophilicity value derived from retention on a column. The low end stands for lower lipophilicity, the high end for higher lipophilicity.

The subject of data set [1] is Mycosphaerella graminicola. In words: In vivo test on Mycosphaerella graminicola (wheat leaf spot). The note with it: Zymoseptoria tritici, wheat plants (Scipion variety), grading 21 to 28 days after contamination, good (at least 70%) or total protection, read-out: protection (% of efficacy). On the procedure: In vivo Test on Mycosphaerella graminicola (Wheat Leaf Spot)
The active ingredients tested are prepared by homogenisation in a mixture of acetone/tween/DMSO, and then diluted with water to obtain the desired active material concentration.
Wheat plants (Scipion variety), sown on a 50/50 peat soil-pozzolana substrate in starter cups and grown at 12° C., are treated at the 1-leaf stage (10 cm tall) by spraying with the active ingredient prepared as described above.
Plants, used as controls, are treated with the mixture of acetone/tween/DMSO/water not containing the active material.
After 24 hours, the plants are contaminated by spraying them with an aqueous suspension of Mycosphaerella graminicola spores (500 000 spores per ml). The spores are collected from a 7-day-old culture. The contaminated wheat plants are incubated for 72 hours at 18° C. and at 100% relative humidity, and then for 21 to 28 days at 90% relative humidity.
Grading (% of efficacy) is carried out 21 to 28 days after the contamination, in comparison with the control plants.

The test system of a further data set is Puccinia recondita. The experiment in a line: In vivo test on Puccinia recondita f. sp. tritici (wheat brown rust). The note with it: 240 h, wheat plants (Scipion variety), grading 10 days after contamination, good (at least 70%) or total protection. As to the method:
In vivo Test on Puccinia reconditef. Sp. tritici (Wheat Brown Rust)
The active ingredients tested are prepared by homogenisation in a mixture of acetone/tween/DMSO, then diluted with water to obtain the desired active material concentration. Wheat plants (Scipion variety) in starter cups, sown on 50/50 peat soil-pozzolana substrate and grown at 12° C., are treated at the 1-leaf stage (10 cm tall) by spraying with the active ingredient prepared as described above. Plants, used as controls, are treated with the mixture of acetone/tween/DMSO/water not containing the active material.
After 24 hours, the plants are contaminated by spraying the leaves with an aqueous suspension of Puccinia recondita spores (100,000 spores per ml). The spores are collected from a 10-day-old contaminated wheat and are suspended in water containing 2.5 ml/of tween 80 10%. The contaminated wheat plants are incubated for 24 hours at 20° C. and at 100% relative humidity, and then for 10 days at 20° C. and at 70% relative humidity. Grading is carried out 10 days after the contamination, in comparison with the control plants.

Data set [2] in a line: logP by HPLC on reversed-phase column (C 18), EEC Directive 79/B31 Annex V.A8, methods A and B. The following applies: reversed-phase HPLC column (C 18), linear gradient 10% to 90% acetonitrile. Format: physicochemical. As to the method: Calibration was carried out using unbranched alkan-2-ones (having 3 to 16 carbon atoms) with known logP values (determination of the logP values by the retention times using linear interpolation between two successive alkanones).

The mark [3] stands for this setting: HPLC reversed-phase C 18, method B: 40° C., 0.1% aqueous formic acid and acetonitrile.
The mark [4] stands for this setting: LogP method B: HPLC reversed-phase C 18, 40° C., 0.1% aqueous formic acid / acetonitrile.

Take `Cc1nc(C(=O)N(C2CC2)S(=O)(=O)c2ccc(Oc3ccccc3)cc2)c(C)o1` [Compound 45]: in data set [1], the pest or weed control at 500 ppm is at least 70%. Turning to `Cc1nc(C(=O)N(C2CC2)S(=O)(=O)c2ccc(Oc3ccccc3)cc2)c(C(F)(F)F)o1` [Compound 49], the pest or weed control at 500 ppm (in data set [1]; with Puccinia recondita) was at least 70% throughout.

Take `Cn1cc(C(=O)N(C2CC2)S(=O)(=O)c2ccc(Oc3ccccc3)cc2)c(C(F)F)n1` [Compound 249]: in data set [1], the pest or weed control at 500 ppm was at least 70%. For the compound `CCOc1nn(C)cc1C(=O)N(C1CC1)S(=O)(=O)c1ccc(Oc2cccc(C(F)(F)F)c2)cc1` [Compound 264], the pest or weed control at 500 ppm (in data set [1]; with Puccinia recondita) was at least 70% throughout. In the data set on Puccinia recondita, `CCCOc1nn(C)cc1C(=O)N(C1CC1)S(=O)(=O)c1ccc(Oc2ccccc2)cc1` [Compound 281] gave a pest or weed control at 500 ppm of at least 70%. With `CCCCOc1ccc(S(=O)(=O)N(C(=O)c2cn(C)nc2OCCC)C2CC2)cc1` [Compound 309], the pest or weed control at 500 ppm in the data set on Puccinia recondita is at least 70%. On to `CCCOc1nn(C)cc1C(=O)N(C1CC1)S(=O)(=O)c1ccc(Oc2cccc(C(F)(F)F)c2)cc1` [Compound 318], for which the pest or weed control at 500 ppm in the data set on Puccinia recondita is at least 70%. `CCCOc1nn(C)cc1C(=O)N(C1CC1)S(=O)(=O)c1ccc(Oc2ccc(C(F)(F)F)cc2)cc1` [Compound 320] yielded a pest or weed control at 500 ppm in the data set with Puccinia recondita of at least 70%. As to `CCCOc1nn(C)cc1C(=O)N(C1CC1)S(=O)(=O)c1ccc(Oc2ccc(Br)cc2)cc1` [Compound 328], the pest or weed control at 500 ppm in the data set with Puccinia recondita was at least 70%. Consider `Cn1nc(C(F)(F)F)c(C(=O)N(C2CC2)S(=O)(=O)c2cccc(Cl)c2F)c1F` [Compound 358], for which the chromatographic logP in data set [2] (setting [3]) stood at 3.2. Moreover, in data set [1], the pest or weed control at 500 ppm was at least 70%.

The compound `Cn1nc(C(F)(F)F)c(C(=O)N(C2CC2)S(=O)(=O)c2ccc(F)c(F)c2F)c1F` [Compound 366] gave a pest or weed control at 500 ppm with Puccinia recondita of at least 70%. Turning to `CCc1nn(C)c(F)c1C(=O)N(C1CC1)S(=O)(=O)c1ccccc1C(F)(F)F` [Compound 377], the chromatographic logP in data set [2] (setting [3]) amounted to 2.9. Besides, the pest or weed control at 500 ppm in data set [1] is at least 70%. Compound `CCc1nn(C)c(F)c1C(=O)N(C1CC1)S(=O)(=O)c1ccc(F)cc1Br` [Compound 380] yielded a chromatographic logP in data set [2] (setting [3]) of 2.9. Also, the pest or weed control at 500 ppm in the data set on Puccinia recondita is at least 70%.

With `CC/C=N/N(C)/C(F)=C/C(=O)N(C1CC1)S(=O)(=O)c1csc(O)c1O` [Compound 438], the chromatographic logP in data set [2] (setting [4]) stood at 4. Also, in data set [1], the pest or weed control at 500 ppm was at least 70%. For the compound `CCc1nn(C)c(F)c1C(=O)N(C1CC1)S(=O)(=O)c1cnc(O)c(Br)c1` [Compound 448], the chromatographic logP in data set [2] (setting [4]) came to 3.5. In addition, the pest or weed control at 500 ppm in the data set with Puccinia recondita was at least 70%.

As for `COc1nn(C)cc1C(=O)N(C1CC1)S(=O)(=O)c1ccc2c(c1)CCC(C)(C)O2` [Compound 457], the pest or weed control at 500 ppm (in data set [1]; in the data set with Puccinia recondita) was at least 70% in each case. As to `COc1nn(C)cc1C(=O)N(C1CC1)S(=O)(=O)c1ccc(Oc2cccc(N(C)C)c2)c(Cl)c1` [Compound 502], the pest or weed control at 500 ppm (in data set [1]; with Puccinia recondita) was at least 70% in each case.

On to `COc1nn(C)cc1C(=O)N(C1CC1)S(=O)(=O)c1ccc(Oc2cccc(C(F)(F)F)c2)cc1Cl` [Compound 508], for which, in data set [1], the pest or weed control at 500 ppm was at least 70%.

`COc1nn(C)cc1C(=O)N(C1CC1)S(=O)(=O)c1ccc(Oc2ccc(Cl)c(Cl)c2)c(Cl)c1` [Compound 513]: the pest or weed control at 500 ppm in the data set with Puccinia recondita is at least 70%. On to `COc1nn(C)cc1C(=O)N(C1CC1)S(=O)(=O)c1ccc(Oc2cccc(C(F)(F)F)c2F)cc1Cl` [Compound 519], for which, in data set [1], the pest or weed control at 500 ppm was at least 70%. For `CCOc1nn(C)cc1C(=O)N(C1CC1)S(=O)(=O)c1ccc2c(c1)CCC(C)(C)O2` [Compound 524], the pest or weed control at 500 ppm (in data set [1]; in the data set on Puccinia recondita) was at least 70% in each case. With `CCOc1nn(C)cc1C(=O)N(C1CC1)S(=O)(=O)c1ccc(Oc2ccc(OC)c(OC)c2)c(O)c1` [Compound 528], the chromatographic logP in data set [2] (setting [4]) came to 3.5. In addition, the pest or weed control at 500 ppm (in data set [1]; with Puccinia recondita) was at least 70% throughout. In data set [2] (setting [4]), `CCOc1nn(C)cc1C(=O)N(C1CC1)S(=O)(=O)c1ccc(Oc2ccccc2)cc1O` [Compound 530] gave a chromatographic logP of 3.6. The pest or weed control at 500 ppm in data set [1] is at least 70%.

`CCOc1nn(C)cc1C(=O)N(C1CC1)S(=O)(=O)c1ccc(Oc2ccccc2)c(O)c1` [Compound 533] showed a chromatographic logP in data set [2] (setting [4]) of 3.9. The compound further returned a pest or weed control at 500 ppm in the data set with Puccinia recondita of at least 70%. As for `CCOc1nn(C)cc1C(=O)N(C1CC1)S(=O)(=O)c1ccc(Oc2ccc(O)cc2)cc1O` [Compound 535], the chromatographic logP in data set [2] (setting [4]) came out at 4. The pest or weed control at 500 ppm in data set [1] is at least 70%. For `CCOc1nn(C)cc1C(=O)N(C1CC1)S(=O)(=O)C1C=CC(OC2=CC=C(C(F)(F)F)CC2)=CC1O` (centres unmarked) [Compound 538], the chromatographic logP in data set [2] (setting [4]) was 4.1. In addition, the pest or weed control at 500 ppm in data set [1] is at least 70%. `CCOc1nn(C)cc1C(=O)N(C1CC1)S(=O)(=O)c1ccc(Oc2cccc(N(C)C)c2)c(O)c1` [Compound 539] returned a chromatographic logP in data set [2] (setting [4]) of 4.1. The pest or weed control at 500 ppm (in data set [1]; in the data set with Puccinia recondita) was at least 70% throughout. Consider `CCOc1nn(C)cc1C(=O)N(C1CC1)S(=O)(=O)c1ccc(Oc2ccc(O)cc2)c(O)c1` [Compound 545], for which the chromatographic logP in data set [2] (setting [4]) is 4.3. In the data set on Puccinia recondita, this compound displayed a pest or weed control at 500 ppm of at least 70%. With `CCOc1nn(C)cc1C(=O)N(C1CC1)S(=O)(=O)c1ccc(Oc2cccc(C(F)(F)F)c2F)c(O)c1` [Compound 547], in data set [2] (setting [4]), the chromatographic logP was determined as 4.3. The pest or weed control at 500 ppm (in data set [1]; in the data set with Puccinia recondita) was at least 70% each time. Regarding `CCOc1nn(C)cc1C(=O)N(C1CC1)S(=O)(=O)c1ccc(Oc2ccc(F)c(O)c2)c(O)c1` [Compound 548], in data set [2] (setting [4]), the chromatographic logP worked out at 4.4. Also, the pest or weed control at 500 ppm in the data set on Puccinia recondita was at least 70%. In data set [2] (setting [4]), `CCOc1nn(C)cc1C(=O)N(C1CC1)S(=O)(=O)c1ccc(Oc2ccc(C(F)(F)F)cc2)c(Br)c1` [Compound 550] had a chromatographic logP of 4.4. Also, the pest or weed control at 500 ppm (in data set [1]; in the data set with Puccinia recondita) was at least 70% in each case.

`CCOc1nn(C)cc1C(=O)N(C1CC1)S(=O)(=O)c1ccc(Oc2cccc(Br)c2)c(O)c1` [Compound 551] registered a chromatographic logP in data set [2] (setting [4]) of 4.5. In the data set on Puccinia recondita, the pest or weed control at 500 ppm is at least 70%. `CCOc1nn(C)cc1C(=O)N(C1CC1)S(=O)(=O)c1ccc(Oc2ccc(Br)cc2)c(O)c1` [Compound 552] yielded a chromatographic logP in data set [2] (setting [4]) of 4.5. Moreover, the pest or weed control at 500 ppm (in data set [1]; in the data set on Puccinia recondita) was at least 70% throughout. In data set [2] (setting [4]), `CCOc1nn(C)cc1C(=O)N(C1CC1)S(=O)(=O)c1ccc(OC2=CC(OC(F)(F)F)=CCC2)c(O)c1` [Compound 554] yielded a chromatographic logP of 4.5. Further, the pest or weed control at 500 ppm in the data set on Puccinia recondita is at least 70%.

For the compound `CCOc1nn(C)cc1C(=O)N(C1CC1)S(=O)(=O)c1ccc(Oc2ccc(O)cc2O)c(O)c1` [Compound 555], the chromatographic logP in data set [2] (setting [4]) was 4.7. In the data set on Puccinia recondita, this compound yielded a pest or weed control at 500 ppm of at least 70%. As to `CCOc1nn(C)cc1C(=O)N(C1CC1)S(=O)(=O)c1ccc(Oc2ccc(O)c(C(F)(F)F)c2)c(Cl)c1` [Compound 556], the chromatographic logP in data set [2] (setting [4]) was found to be 4.8. In addition, the pest or weed control at 500 ppm (in data set [1]; in the data set with Puccinia recondita) was at least 70% in each case. `CCOc1nn(C)cc1C(=O)N(C1CC1)S(=O)(=O)c1ccc(Oc2ccc(Cl)c(Cl)c2)c(Cl)c1` [Compound 557] came in with a chromatographic logP in data set [2] (setting [4]) of 4.8. This compound came in with a pest or weed control at 500 ppm in the data set on Puccinia recondita of at least 70%. In data set [2] (setting [4]), `CCOc1nn(C)cc1C(=O)N(C1CC1)S(=O)(=O)c1ccc(Oc2ccc(Br)c(O)c2)c(Cl)c1` [Compound 558] displayed a chromatographic logP of 4.9. For the same compound, the pest or weed control at 500 ppm in the data set on Puccinia recondita was at least 70%. With `CCc1nn(C)c(F)c1C(=O)N(C1CC1)S(=O)(=O)c1ccc(Oc2cccc(C)c2)cc1` [Compound 578], the pest or weed control at 500 ppm in data set [1] is at least 70%. The same measure, in the same setting: for `Cc1cccc(Oc2ccc(S(=O)(=O)N(C(=O)c3c(C)nn(C)c3F)C3CC3)cc2)c1` [Compound 583] the value was at least 70%. On to `CCOc1nn(C)cc1C(=O)N(C1CC1C)S(=O)(=O)c1ccc(Oc2ccccc2)cc1` (centres unmarked) [Compound 675], for which the pest or weed control at 500 ppm in data set [1] is at least 70%.
